Results as given in patent US4087432A, “1H-imidazo(4,5-b)pyridine compounds” (Eli Lilly and Company, priority 1975, dated 1978).

How the values were obtained:
Corn [1] = assay: Postemergent injury rating, corn; format: in vivo; parameters: key: injury rating scale, 4 = death
Description: (§1) Various of the compounds to be employed as active agent in accordance with the present invention were evaluated for preemergent application to various species of plants. In this evaluation, a soil was prepared consisting of one part masonry sand and one part shredded top soil blended together in a cement mixer. One gallon of this soil was placed in a 25 × 35 cm. galvanized flat and was patted down with a bench brush until level. A three-row marker was used to make 21/2 cm. deep furrows in approximately two-fifths of the flat. Crop seeds consisting of four kernels of corn, five cotton seeds and five soybean seeds were placed in these furrows. A four-row template was then placed on the remaining soil and the indicated approximate numbers of each of the following seeds were planted, one species to each section: foxtail (millet), 80-100 seeds; velvetleaf (40-50 seeds); rough pigweed (150-250 seeds); and large crabgrass (100-150 seeds).
(§2) Sufficient soil was added to cover the entire flat. Thus, the weed seeds were covered to a depth of about 6 mm. and the crop seeds were covered to a depth of about 3 cm.
(§3) In assaying the effect of the composition as preemergent herbicides, a flat prepared as above, taken either on the day of planting or on the next day, was placed in a chamber equipped with a turntable and an air exhaust. The herbicidal composition, either a spray-type emulsion or a wettable powder, was applied to the flat with a modified DeVilbiss atomizer hooked to an air source. Twelve and one-half milliliters of the composition under test were applied to each flat either on the day of planting or the succeeding day. Injury ratings and observations as to type of injury were made eleven to twelve days after treatment. The injury rating scale used was as follows:
(§4) 4--death When more than one determination was carried out at a given rate, an average value was calculated for the injury rating. Each compound evaluated was formulated as a spray by one of the following procedures. In one method the particular compound was wetted by grinding in a mortar with one part of polyoxyethylene sorbitan monolaurate. Five hundred parts of water were added slowly to the resultant creamy paste to give an aqueous dispersion with a surfactant concentration of 0.2 percent. This dispersion was entirely satisfactory for spray application. In a second procedure the compound was dissolved in one volume of acetone, and the acetone solution was diluted with nineteen volumes of water containing 0.1 percent of polyoxyethylene sorbitan monolaurate.
(§5) Representative compounds of the present invention were evaluated for postemergent application to plants including corn and several weed species. The evaluation was carried out in accordance with the procedures of Examples 49-52 except that the test solutions were applied about 9-12 days after the preparation and seeding of the flats.

Crabgrass [2] = assay: Postemergent injury rating, crabgrass; format: in vivo, large crabgrass; parameters: key: injury rating scale, 4 = death
Description: as §1, §2, §3, §4, §5

Pigweed [3] = assay: Postemergent injury rating, pigweed; format: in vivo, rough pigweed; parameters: key: injury rating scale, 4 = death
Description: as §1, §2, §3, §4, §5

Foxtail [4] = assay: Postemergent injury rating, foxtail; format: in vivo, foxtail (millet); parameters: key: injury rating scale, 4 = death
Description: as §1, §2, §3, §4, §5

Crabgrass [5] = assay: Preemergent injury rating, crabgrass; format: in vivo, large crabgrass; parameters: key: injury rating scale on which 4 = death
Description: as §1, §2, §3, §4
(§6) In the following table setting forth the results of the evaluation, column 1 gives the name of the compound under test; column 2, the rate in pounds per acre at which the compound was applied to the test flat; and the remaining columns, the injury to the particular plant seeds or seedlings as measured by the foregoing scale.

Corn [6] = assay: Preemergent injury rating, corn; format: in vivo; parameters: key: injury rating scale on which 4 = death
Description: as §1, §2, §3, §4, §6

Foxtail [7] = assay: Preemergent injury rating, foxtail; format: in vivo, foxtail (millet); parameters: key: injury rating scale on which 4 = death
Description: as §1, §2, §3, §4, §6

Soybean = assay: Preemergent injury rating, soybean; format: in vivo; parameters: key: injury rating scale on which 4 = death; conditions: 2 lbs/acre
Description: as §1, §2, §3, §4, §6

Pigweed [8] = assay: Preemergent injury rating, pigweed; format: in vivo, rough pigweed; parameters: key: injury rating scale on which 4 = death
Description: as §1, §2, §3, §4, §6

Cotton = assay: Preemergent injury rating, cotton; format: in vivo; parameters: key: injury rating scale on which 4 = death; conditions: 2 lbs/acre
Description: as §1, §2, §3, §4, §6

| SMILES | Injury Rating, Corn (Corn [1]; 4 lbs/acre) | Injury Rating, Corn (Corn [1]; 8 lbs/acre) | Injury Rating, Crabgrass (Crabgrass [2]; 4 lbs/acre) | Injury Rating, Crabgrass (Crabgrass [2]; 8 lbs/acre) | Injury Rating, Pigweed (Pigweed [3]; 4 lbs/acre) | Injury Rating, Pigweed (Pigweed [3]; 8 lbs/acre) | Injury Rating, Foxtail (Foxtail [4]; 4 lbs/acre) | Injury Rating, Foxtail (Foxtail [4]; 8 lbs/acre) | Injury Rating, Crabgrass (Crabgrass [5]; 2 lbs/acre) | Injury Rating, Crabgrass (Crabgrass [5]; 8 lbs/acre) | Injury Rating, Corn (Corn [6]; 2 lbs/acre) | Injury Rating, Corn (Corn [6]; 8 lbs/acre) | Injury Rating, Foxtail (Foxtail [7]; 2 lbs/acre) | Injury Rating, Foxtail (Foxtail [7]; 8 lbs/acre) | Injury Rating, Soybean (Soybean) | Injury Rating, Pigweed (Pigweed [8]; 2 lbs/acre) | Injury Rating, Pigweed (Pigweed [8]; 8 lbs/acre) | Injury Rating, Cotton (Cotton) |
| --- | --- | --- | --- | --- | --- | --- | --- | --- | --- | --- | --- | --- | --- | --- | --- | --- | --- | --- |
| On1c(C(F)(F)F)nc2nccc(Cl)c21 [7-chloro-1-hydroxy-2-(trifluoromethyl)-1H-imidazo(4,5-b)pyridine] | 0 | 1 | 1 | 2 | 3 | 3 | 1 | 3 | – | – | – | – | – | – | – | – | – | – |
| On1c(C(F)(F)F)nc2nc(Cl)ccc21 [5-chloro-1-hydroxy-2-(trifluoromethyl)-1H-imidazo(4,5-b)pyridine] | – | – | – | – | – | – | – | – | 3 | 3 | 0 | 1 | 2 | 4 | 0 | 3 | 3 | 0 |
